Organism: Rattus norvegicus
Assay: DrugMatrix - Regimen: Daily Repeat
Format: toxicity, organism-based, Sprague-Dawley
Parameters: regimen Daily Repeat, gender Male, age 6-8 weeks
Conditions: in vivo, po, 16 mg/kg, route oral GAVAGE, dose level Low, […]; for ABSOLUTE BASOPHIL / ABSOLUTE EOSINOPHIL / ABSOLUTE LYMPHOCYTE / ABSOLUTE MONOCYTE / ABSOLUTE SEGMENTED NEUTROPHIL / BASOPHIL / EOSINOPHIL / ERYTHROCYTE COUNT / HEMATOCRIT / HEMOGLOBIN / LEUKOCYTE COUNT / LYMPHOCYTE / MEAN CORPUSCULAR HEMOGLOBIN / MEAN CORPUSCULAR HEMOGLOBIN CONCENTRATION / MEAN CORPUSCULAR VOLUME / MONOCYTE / NEUTROPHIL / NUCLEATED RED BLOOD CELLS / PLATELET COUNT: tissue Blood; for ALANINE AMINOTRANSFERASE / ALBUMIN / ALKALINE PHOSPHATASE / ASPARTATE AMINOTRANSFERASE / BLOOD UREA NITROGEN / CARBON DIOXIDE / CHLORIDE / CHOLESTEROL / CREATINE PHOSPHOKINASE / CREATININE / GLUCOSE / LACTATE DEHYDROGENASE / LIPASE / PHOSPHORUS / POTASSIUM / SODIUM / TOTAL BILIRUBIN / TOTAL PROTEIN / URIC ACID: tissue Plasma

SMILES: O=C(O)c1cc(-c2ccc(F)cc2F)ccc1O [DIFLUNISAL]
- ABSOLUTE BASOPHIL (72 h, time 3 day): 0 CELLS/uL
- ABSOLUTE EOSINOPHIL (72 h, time 3 day): 52.33 CELLS/uL
- ABSOLUTE LYMPHOCYTE (72 h, time 3 day): 12636.67 CELLS/uL
- ABSOLUTE MONOCYTE (72 h, time 3 day): 104.67 CELLS/uL
- ABSOLUTE SEGMENTED NEUTROPHIL (72 h, time 3 day): 1073 CELLS/uL
- BASOPHIL (72 h, time 3 day): 0%
- EOSINOPHIL (72 h, time 3 day): 0.33%
- ERYTHROCYTE COUNT (72 h, time 3 day): 5.44 x10E6/uL
- HEMATOCRIT (72 h, time 3 day): 33.4%
- HEMOGLOBIN (72 h, time 3 day): 13.27 G/DL
- LEUKOCYTE COUNT (72 h, time 3 day): 13.87 x10E3/uL
- LYMPHOCYTE (72 h, time 3 day): 91.33%
- MEAN CORPUSCULAR HEMOGLOBIN (72 h, time 3 day): 24.4 pg
- MEAN CORPUSCULAR HEMOGLOBIN CONCENTRATION (72 h, time 3 day): 39.73 G/DL
- MEAN CORPUSCULAR VOLUME (72 h, time 3 day): 61.47 fL
- MONOCYTE (72 h, time 3 day): 0.67%
- NEUTROPHIL (72 h, time 3 day): 7.67%
- NUCLEATED RED BLOOD CELLS (72 h, time 3 day): 0 /100WBC
- PLATELET COUNT (72 h, time 3 day): 1096.67 x10E3/uL
- ALANINE AMINOTRANSFERASE (72 h, time 3 day): 65.33 u/L
- ALBUMIN (72 h, time 3 day): 3.77 G/DL
- ALKALINE PHOSPHATASE (72 h, time 3 day): 396.67 u/L
- ASPARTATE AMINOTRANSFERASE (72 h, time 3 day): 93.33 u/L
- BLOOD UREA NITROGEN (72 h, time 3 day): 10.67 mg/dL
- CARBON DIOXIDE (72 h, time 3 day): 29.67 mmol/L
- CHLORIDE (72 h, time 3 day): 100 MEQ/L
- CHOLESTEROL (72 h, time 3 day): 80.67 mg/dL
- CREATINE PHOSPHOKINASE (72 h, time 3 day): 405 u/L
- CREATININE (72 h, time 3 day): 0.14 mg/dL
- GLUCOSE (72 h, time 3 day): 166.67 mg/dL
- LACTATE DEHYDROGENASE (72 h, time 3 day): 130 u/L
- LIPASE (72 h, time 3 day): 11.33 u/L
- PHOSPHORUS (72 h, time 3 day): 11.43 mg/dL
- POTASSIUM (72 h, time 3 day): 6.17 MEQ/L
- SODIUM (72 h, time 3 day): 141.97 MEQ/L
- TOTAL BILIRUBIN (72 h, time 3 day): 0.13 mg/dL
- TOTAL PROTEIN (72 h, time 3 day): 5.47 G/DL
- URIC ACID (72 h, time 3 day): 1.53 mg/dL
- ABSOLUTE BASOPHIL (120 h, time 5 day): 0 CELLS/uL
- ABSOLUTE EOSINOPHIL (120 h, time 5 day): 84.67 CELLS/uL
- ABSOLUTE LYMPHOCYTE (120 h, time 5 day): 10265 CELLS/uL
- ABSOLUTE MONOCYTE (120 h, time 5 day): 157.67 CELLS/uL
- ABSOLUTE SEGMENTED NEUTROPHIL (120 h, time 5 day): 1026 CELLS/uL
- BASOPHIL (120 h, time 5 day): 0%
- EOSINOPHIL (120 h, time 5 day): 0.67%
- ERYTHROCYTE COUNT (120 h, time 5 day): 5.28 x10E6/uL
- HEMATOCRIT (120 h, time 5 day): 33.5%
- HEMOGLOBIN (120 h, time 5 day): 13.6 G/DL
- LEUKOCYTE COUNT (120 h, time 5 day): 11.53 x10E3/uL
- LYMPHOCYTE (120 h, time 5 day): 89%
- MEAN CORPUSCULAR HEMOGLOBIN (120 h, time 5 day): 25.73 pg
- MEAN CORPUSCULAR HEMOGLOBIN CONCENTRATION (120 h, time 5 day): 40.63 G/DL
- MEAN CORPUSCULAR VOLUME (120 h, time 5 day): 63.37 fL
- MONOCYTE (120 h, time 5 day): 1.33%
- NEUTROPHIL (120 h, time 5 day): 9%
- NUCLEATED RED BLOOD CELLS (120 h, time 5 day): 0.33 /100WBC
- PLATELET COUNT (120 h, time 5 day): 1107.33 x10E3/uL
- ALANINE AMINOTRANSFERASE (120 h, time 5 day): 56 u/L
- ALBUMIN (120 h, time 5 day): 4.13 G/DL
- ALKALINE PHOSPHATASE (120 h, time 5 day): 404.33 u/L
- ASPARTATE AMINOTRANSFERASE (120 h, time 5 day): 84.33 u/L
- BLOOD UREA NITROGEN (120 h, time 5 day): 16 mg/dL
- CARBON DIOXIDE (120 h, time 5 day): 25.33 mmol/L
- CHLORIDE (120 h, time 5 day): 102.33 MEQ/L
- CHOLESTEROL (120 h, time 5 day): 68.67 mg/dL
- CREATINE PHOSPHOKINASE (120 h, time 5 day): 379.67 u/L
- CREATININE (120 h, time 5 day): 0.23 mg/dL
- GLUCOSE (120 h, time 5 day): 159.33 mg/dL
- LACTATE DEHYDROGENASE (120 h, time 5 day): 227 u/L
- LIPASE (120 h, time 5 day): 11.67 u/L
- PHOSPHORUS (120 h, time 5 day): 11.33 mg/dL
- POTASSIUM (120 h, time 5 day): 6.39 MEQ/L
- SODIUM (120 h, time 5 day): 143.53 MEQ/L
- TOTAL BILIRUBIN (120 h, time 5 day): 0.17 mg/dL
- TOTAL PROTEIN (120 h, time 5 day): 5.47 G/DL
- URIC ACID (120 h, time 5 day): 1.67 mg/dL

Source: ChEMBL document CHEMBL3885881, “DrugMatrix”
